Earlier results on four compounds are cited in patent US6949538B2, “Compounds, compositions, and methods” (Cytokinetics, Inc., priority 2002, dated 2005).

As a reminder, the GI50 is the concentration giving 50% growth inhibition.

The subject of the series is A549 cells. Particulars: data provided by National Cancer Institute, Developmental Therapeutic Program.
`CC(=O)O[C@H]1C(=O)[C@@]2(C)[C@H]([C@H](OC(=O)c3ccccc3)[C@]3(O)C[C@H](OC(=O)[C@H](O)[C@@H](NC(=O)c4ccccc4)c4ccccc4)C(C)=C1C3(C)C)[C@]1(OC(C)=O)CO[C@@H]1C[C@@H]2O` [paclitaxel]: the 50% growth inhibitory concentration (GI50) was 4 nM.

`COc1cccc2c1C(=O)c1c(O)c3c(c(O)c1C2=O)C[C@@](O)(C(=O)CO)C[C@@H]3O[C@H]1C[C@H](N)[C@H](O)[C@H](C)O1` [doxorubicin]: the concentration for 50% growth inhibition (GI50) is 63 nM. Take `O=c1[nH]cc(F)c(=O)[nH]1` [5-fluorouracil]: the GI50 was 1000 nM. For the compound `NC(=O)NO` [hydroxyurea], the GI50 was 500000 nM.
